Data published in patent US6548540B2, “Method of treating cancer using dithiocarbamate derivatives” (Charlotte-Mecklenburg Hospital Authority, priority 1998, dated 2003).

Target: T1, transcription factor binding to CRE (ATF2 containing complex II) (Homo sapiens, UniProt P15336)
T1 construct: endogenous in cells; host or cells: M1619 human melanoma cells, crude nuclear protein extract
T1 sequence (P15336 1-505): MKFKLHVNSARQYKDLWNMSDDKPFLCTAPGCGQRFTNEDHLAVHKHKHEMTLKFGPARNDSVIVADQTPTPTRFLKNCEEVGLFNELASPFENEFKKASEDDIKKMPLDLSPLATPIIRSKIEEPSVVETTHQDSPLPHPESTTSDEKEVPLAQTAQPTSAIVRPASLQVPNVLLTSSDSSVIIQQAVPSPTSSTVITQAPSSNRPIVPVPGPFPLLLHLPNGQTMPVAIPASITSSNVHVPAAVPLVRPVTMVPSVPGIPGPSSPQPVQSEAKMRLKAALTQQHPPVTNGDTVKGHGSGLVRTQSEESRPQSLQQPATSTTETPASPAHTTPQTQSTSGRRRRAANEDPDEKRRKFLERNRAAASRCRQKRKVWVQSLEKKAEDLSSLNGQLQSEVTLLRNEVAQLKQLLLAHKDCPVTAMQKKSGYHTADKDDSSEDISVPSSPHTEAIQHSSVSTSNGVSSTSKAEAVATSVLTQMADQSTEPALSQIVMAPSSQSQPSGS
Experiment: EMSA, agents added directly to binding reaction
Conditions: for transcription factor binding to CRE: DTT 2.5 mM; for transcription factor binding to CRE, effect with GSH instead of DTT: GSH 3.0 mM as reducing agent
Protocol: This dose was chosen to approximate the steady state plasma and tissue concentrations of drug in human subjects on chronic therapy with this agent. Disulfiram was solubilized in dimethylsulfoxide (DMSO) so that the final concentration of DMSO was less than 0.3-0.5%. Equal volumes of DMSO were added to control experiments. Nuclear protein was harvested and electrophoretic mobility gel shift assays were performed using DNA consensus binding sequence for the cyclic-AMP responsive element (CRE) as outlined below. […] EMSAs were performed using consensus oligonucleotides ([NT] and 3'-[NT]5') for the cyclic-AMP responsive element CRE (ProMega, Madison, Wis.), end-labeled by phosphorylation with [γ^32P]-ATP and T4 polynucleotide kinase. DNA-protein binding reactions were performed with 2 μg of nuclear protein (as determined by the Pierce method) and 30-80,000 cpm of ^32P-end-labelled double-stranded DNA probe in 10 mM Tris-HCl, pH 7.5, 50 mM NaCl, 0.5 mM EDTA, 0.5 mM DTT (except where indicated), 1 mM MgCl2, 50 μg/ml poly dI-dC, and 4% glycerol. All components of the binding reaction with the exception of labeled probe were combined and incubated at room temperature for 10 minutes before addition of labeled probe and incubation for an additional 20 minutes. To determine if inhibition of transcription factor binding to CRE could be attributed to direct transcription factor modification by disulfiram and copper, we studied the effect of adding each agent directly to the binding reaction performed with nuclear protein from untreated […] cells. Therein electrophoretic mobility shift assays (EMSAs) were performed showing that addition of disulfiram plus copper to the binding reaction reduces DNA binding to CRE. […] In lanes 1-5, DTT (2.5 mM) was added to the binding reaction as a reducing agent, whereas in lane 6-9, GSH (3.0 mM) was used.

## CCN(CC)C(=S)SSC(=S)N(CC)CC [Disulfiram, tetraethylthiuram disulfide]
Disulfiram 5 μM alone added to binding reaction
  transcription factor binding to CRE: reduced
Disulfiram 5 μM alone
  transcription factor binding to CRE, effect with GSH instead of DTT: more pronounced
Disulfiram 5 μM and 1.6 μM CuSO4
  transcription factor binding to CRE, effect with GSH instead of DTT: more pronounced
Disulfiram 5 μM and 1.6 μM CuSO4 added to binding reaction
  transcription factor binding to CRE: reduced
